Measured values published in PMC10468942, “A Fluorescent Probe as a Lead Compound for a Selective α-Synuclein PET Tracer: Development of a Library of 2-Styrylbenzothiazoles and Biological Evaluation of [^18F]PFSB and [^18F]MFSB” (ACS Omega, 2023).
Values joined by “and” are separate entries in the source; they are usually repeats but may differ in a detail not shown here. Equal entries are not always repeated. Where two headings read alike, the source gives them in different places.

Legend:
[1] = target: T1, αSYN fibrils (Homo sapiens, UniProt P37840); test: [^3H]PiB competition binding assay on αSYN fibrils
T1 construct: cloning of the DNA construct encoding full-length αSYN into the pET-22b vector; made in house; host or cells: Escherichia coli BL21
Method: Following the cloning of the DNA construct encoding full-length αSYN into the pET-22b vector and its transformation into BL21 cells, the expression of human αSYN from a prokaryotic host was induced overnight in Escherichia coli at 20 °C with 0.5 mM IPTG. The cells were harvested by centrifugation, resuspended in 20 mM Tris-HCl pH 7.6, 25 mM NaCl and 1× complete protease inhibitor (Roche, Basel, Switzerland), and lysed by sonication. […] Anion exchange chromatography (HiTrap Q, GE Healthcare, Chicago, Illinois) was used to trap the produced αSYN, which was eluted with NaCl 0.1 M over 20 column volumes. Fractions containing αSYN were concentrated and further purified through a Superdex 75 SEC column equilibrated with PBS. […] A 4 mg/mL solution of αSYN in 20 mM K3PO4 pH 9.1 was placed in an orbital shaker at 37 °C, 1000 rpm for 5 days to prepare P91s. The assemblies were either sonicated with cycles of 20 s on and 10 s off at 50% amplitude (Q800R3, Qsonica) for a total of 10 min or directly aliquoted in volumes of 10 μL each stored at −80 °C until use. […] The final products were aliquoted, frozen on dry ice, and stored at −80 °C until use.
(§1) Concentrations of αSYN and Aβ1-42 fibrils were as described above.
(§2) Plates were incubated on a shaker (MaxQ 6000, Thermo Fisher Scientific, Inc., Marietta, OH) at 50 rpm for 2 h at 37 °C, covered by removable sealing tapes (PerkinElmer, Waltham, MA). Vacuum filtration and read-out were performed as previously reported.[17] […] Data points were fitted using nonlinear regression analysis in GraphPad Prism (GraphPad Software, Inc., Version 8.4.0, La Jolla).

[2] = target: T2, Aβ1-42 fibrils (Homo sapiens, UniProt P05067); test: [^3H]PiB competition binding assay on Aβ fibrils; settings: Aβ1–42 fibrils
T2 construct: Synthetic lyophilized human Aβ1-42 peptide; purchased EMC Microcollections, Tuebingen, Germany; host or cells: synthetic peptide
T2 sequence (P05067 672-713 limits assumed): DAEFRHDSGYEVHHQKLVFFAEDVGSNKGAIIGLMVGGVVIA
Method: Following the cloning of the DNA construct encoding full-length αSYN into the pET-22b vector and its transformation into BL21 cells, the expression of human αSYN from a prokaryotic host was induced overnight in Escherichia coli at 20 °C with 0.5 mM IPTG. The cells were harvested by centrifugation, resuspended in 20 mM Tris-HCl pH 7.6, 25 mM NaCl and 1× complete protease inhibitor (Roche, Basel, Switzerland), and lysed by sonication. […] Anion exchange chromatography (HiTrap Q, GE Healthcare, Chicago, Illinois) was used to trap the produced αSYN, which was eluted with NaCl 0.1 M over 20 column volumes. Fractions containing αSYN were concentrated and further purified through a Superdex 75 SEC column equilibrated with PBS. […] A 4 mg/mL solution of αSYN in 20 mM K3PO4 pH 9.1 was placed in an orbital shaker at 37 °C, 1000 rpm for 5 days to prepare P91s. The assemblies were either sonicated with cycles of 20 s on and 10 s off at 50% amplitude (Q800R3, Qsonica) for a total of 10 min or directly aliquoted in volumes of 10 μL each stored at −80 °C until use. The method for Aβ1-42 fibrils generation was adapted from Bagchi et al. and described in Kuebler et al.[17],[27] […] Aggregation was induced by incubation in an Eppendorf Thermomixer at 37 °C with shaking at 800 rpm for 72 h. The resulting fibrils were sonicated for 3 min in a water bath (Elmasonic S 60 H, Elma Schmidbauer GmbH, Singen, Germany). The final products were aliquoted, frozen on dry ice, and stored at −80 °C until use.
as §1, §2

[3] = nonmethylated compounds, Table 1, two values in a cell = single determinations, a: mean Ki ± SEM of three data points, b: single data point, read-out: Ki
[4] = methylated compounds, Table 2, two values in a cell = single determinations, read-out: Ki
[5] = Ki, αSYN [^3H]PiB competition, mean Ki ± SEM, n = 3, or single determinations

Compound: Fc1cccc2nc(C=Cc3ccc(N4CCCCC4)cc3)sc12 [12a, 7-Fluoro-2-(4-(piperidin-1-yl)styryl)benzo[d]thiazole]
- Ki [1, 3]: 283 nM

Compound: C(=Cc1nc2ccccc2s1)c1ccc(N2CCCCC2)cc1 [compound 20, 2-(4-(Piperidin-1-yl)styryl)benzo[d]thiazole]
- Ki [1, 3]: 170 nM and 33.5 nM

Compound: COc1cccc2sc(C=Cc3ccc(N4CCCCC4)cc3)nc12 [2a, 4-Methoxy-2-(4-(piperidin-1-yl)styryl)benzo[d]thiazole]
- Ki [1, 3]: > 400 nM

Compound: Cc1cccc2sc(/C=C/c3ccc(N4CCCCC4)cc3)[n+](C)c12 [1b, 3,4-Dimethyl-2-(4-(piperidin-1-yl)styryl)benzo[d]thiazol-3-ium 4-nitrobenzenesulfonate]
- Ki [1, 4]: 36.1 nM and 83.9 nM

Compound: Fc1cccc2sc(C=Cc3ccc(N4CCCCC4)cc3)nc12 [3a, 4-Fluoro-2-(4-(piperidin-1-yl)styryl)benzo[d]thiazole]
- Ki [1, 3]: 187 nM and 110 nM

Compound: C[n+]1c(C=Cc2ccc(N3CCCCC3)cc2)sc2ccc(F)cc21 [6b, 5-Fluoro-3-methyl-2-(4-(piperidin-1-yl)styryl)benzo[d]thiazol-3-ium Iodide]
- Ki [1, 4]: 435 nM and 268 nM

Compound: Fc1ccc2sc(C=Cc3ccc(N4CCCCC4)cc3)nc2c1 [6a, 5-Fluoro-2-(4-(piperidin-1-yl)styryl)benzo[d]thiazole]
- Ki [1, 3]: 169 nM and 124 nM

Compound: Fc1ccc2nc(C=CC=Cc3ccc(N4CCCCC4)cc3)sc2c1 [compound 43, 6-Fluoro-2-(4-(4-(piperidin-1-yl)phenyl)buta-1,3-dien-1-yl)benzo[d]thiazole]
- Ki [1, 5]: 213 ± 122 nM
- fold reduction of affinity compared to 14a ([1]; [^3H]PiB competition): ~3 fold
- competition with [^3H]PiB / binding to Aβ fibrils (in words) [2]: remained low

Compound: C[n+]1c(C=CC=Cc2ccc(N3CCCCC3)cc2)sc2ccccc21 [14b, 3-Methyl-2-(4-(4-(piperidin-1-yl)phenyl)buta-1,3-dien-1-yl)benzo[d]thiazol-3-ium Iodide]
- Ki [1, 5]: < 20 nM
- Ki [1, 4]: 23 nM and 16.8 nM

Compound: C(=Cc1nc2ccccc2s1)c1ccc(N2CCSCC2)cc1 [16a, 2-(4-Thiomorpholinostyryl)benzo[d]thiazole]
- Ki [1, 3]: 219 nM and 58.6 nM

Compound: Cc1ccc2sc(C=Cc3ccc(N4CCCCC4)cc3)[n+](C)c2c1 [4b, 3,5-Dimethyl-2-(4-(piperidin-1-yl)styryl)benzo[d]thiazol-3-ium Iodide]
- Ki [1, 4]: 84.6 nM and 59.9 nM

Compound: Cc1cccc2sc(C=Cc3ccc(N4CCCCC4)cc3)nc12 [1a, 4-Methyl-2-(4-(piperidin-1-yl)styryl)benzo[d]thiazole]
- Ki [1, 3]: 71.2 nM and 198 nM

Compound: Fc1ccc2nc(C=CC=Cc3ccc(N4CCCC4)cc3)sc2c1 [compound 44, 6-Fluoro-2-(4-(4-(pyrrolidin-1-yl)phenyl)buta-1,3-dien-1-yl)benzo[d]thiazole]
- Ki [1, 5]: 85 ± 41 nM
- competition with [^3H]PiB / binding to Aβ fibrils (in words) [2]: remained low

Compound: CN(C)c1ccc(/C=C/c2sc3ccccc3[n+]2C)cc1 [19b, 2-(4-(Dimethylamino)styryl)-3-methylbenzo[d]thiazol-3-ium Iodide]
- Ki [1, 4]: > 400 nM

Compound: CN(C)c1ccc(C=Cc2nc3ccccc3s2)cc1 [19a, 4-(2-(Benzo[d]thiazol-2-yl)vinyl)-N,N-dimethylaniline]
- Ki [1, 3]: > 400 nM

Compound: Cc1ccc2nc(C=Cc3ccc(N4CCCCC4)cc3)sc2c1 [7a, 6-Methyl-2-(4-(piperidin-1-yl)styryl)benzo[d]thiazole]
- Ki [1, 3]: 230 nM and 218 nM

Compound: FC1CCN(c2ccc(C=Cc3nc4ccccc4s3)cc2)CC1 [18a, 2-(4-(4-Fluoropiperidin-1-yl)styryl)benzo[d]thiazole]
- Ki [1, 3]: 99.8 ± 32.6 nM

Compound: Cc1ccc2c(c1)sc(C=Cc1ccc(N3CCCCC3)cc1)[n+]2C [7b, 3,6-Dimethyl-2-(4-(piperidin-1-yl)styryl)benzo[d]thiazol-3-ium Iodide]
- Ki [1, 4]: 16.8 nM and 23.8 nM

Compound: COc1ccc2sc(C=Cc3ccc(N4CCCCC4)cc3)[n+](C)c2c1 [5b, 5-Methoxy-3-methyl-2-(4-(piperidin-1-yl)styryl)benzo[d]thiazol-3-ium Iodide]
- Ki [1, 4]: 27.5 nM and 163 nM

Compound: C[n+]1c(C=Cc2ccc(N3CCSCC3)cc2)sc2ccccc21 [16b, 3-Methyl-2-(4-thiomorpholinostyryl)benzo[d]thiazol-3-ium Iodide]
- Ki [1, 4]: > 400 nM

Compound: Cc1cccc2nc(C=Cc3ccc(N4CCCCC4)cc3)sc12 [10a, 7-Methyl-2-(4-(piperidin-1-yl)styryl)benzo[d]thiazole]
- Ki [1, 3]: > 400 nM

Compound: C(C=Cc1nc2ccccc2s1)=Cc1ccc(N2CCCCC2)cc1 [14a, 2-(4-(4-(Piperidin-1-yl)phenyl)buta-1,3-dien-1-yl)benzo[d]thiazole]
- Ki [1, 3]: 81.9 ± 15.6 nM
- competition with [^3H]PiB / binding to Aβ fibrils (in words) [2]: None of the tested compounds appreciably competed against [^3H]PiB

Compound: COc1cccc2c1sc(C=Cc1ccc(N3CCCCC3)cc1)[n+]2C [11b, 7-Methoxy-3-methyl-2-(4-(piperidin-1-yl)styryl)benzo[d]thiazol-3-ium Iodide]
- Ki [1, 4]: 234 nM and 177 nM

Compound: Cc1ccc2sc(C=Cc3ccc(N4CCCCC4)cc3)nc2c1 [4a, 5-Methyl-2-(4-(piperidin-1-yl)styryl)benzo[d]thiazole]
- Ki [1, 3]: 233 nM and 88.1 nM

Compound: Cc1cccc2c1sc(C=Cc1ccc(N3CCCCC3)cc1)[n+]2C [10b, 3,7-Dimethyl-2-(4-(piperidin-1-yl)styryl)benzo[d]thiazol-3-ium Iodide]
- Ki [1, 4]: 231 nM and 63.9 nM

Compound: COc1ccc2sc(C=Cc3ccc(N4CCCCC4)cc3)nc2c1 [5a, 5-Methoxy-2-(4-(piperidin-1-yl)styryl)benzo[d]thiazole]
- Ki [1, 3]: 128 nM and 188 nM

Compound: C[n+]1c(C=Cc2ccc(N3CCCC3)cc2)sc2ccccc21 [17b, 3-Methyl-2-(4-(pyrrolidin-1-yl)styryl)benzo[d]thiazol-3-ium Iodide]
- Ki [1, 4]: 145 nM and 58.6 nM

Compound: C[n+]1c(/C=C/c2ccc(N3CCOCC3)cc2)sc2ccccc21 [15b, 3-Methyl-2-(4-morpholinostyryl)benzo[d]thiazol-3-ium Iodide]
- Ki [1, 4]: > 400 nM

Compound: C[n+]1c(C=Cc2ccc(N3CCCCC3)cc2)sc2cc(F)ccc21 [9b, 6-Fluoro-3-methyl-2-(4-(piperidin-1-yl)styryl)benzo[d]thiazol-3-ium Iodide]
- Ki [1, 4]: 335 nM and 43.6 nM

Compound: C[n+]1c(-c2ccc(N3CCCCC3)cc2)sc2ccccc21 [13b, 3-Methyl-2-(4-(piperidin-1-yl)phenyl)benzo[d]thiazol-3-ium]
- Ki [1, 4]: > 400 nM

Compound: COc1cccc2nc(C=Cc3ccc(N4CCCCC4)cc3)sc12 [11a, 7-Methoxy-2-(4-(piperidin-1-yl)styryl)benzo[d]thiazole]
- Ki [1, 3]: > 400 nM

Compound: C[n+]1c(C=Cc2ccc(N3CCCCC3)cc2)sc2c(F)cccc21 [12b, 7-Fluoro-3-methyl-2-(4-(piperidin-1-yl)styryl)benzo[d]thiazol-3-ium Iodide]
- Ki [1, 4]: > 400 nM

Compound: C[n+]1c(/C=C/c2ccc(N3CCCCC3)cc2)sc2cccc(F)c21 [3b, 4-Fluoro-3-methyl-2-(4-(piperidin-1-yl)styryl)benzo[d]thiazol-3-ium 4-nitrobenzenesulfonate]
- Ki [1, 4]: > 400 nM

Compound: COc1ccc2nc(C=Cc3ccc(N4CCCCC4)cc3)sc2c1 [8a, 6-Methoxy-2-(4-(piperidin-1-yl)styryl)benzo[d]thiazole]
- Ki [1, 3]: 110 nM and 103 nM

Compound: C[n+]1c(C=Cc2ccc(N3CCC(F)CC3)cc2)sc2ccccc21 [18b, 2-(4-(4-Fluoropiperidin-1-yl)styryl)-3-methylbenzo[d]thiazol-3-ium Iodide]
- Ki [1, 4]: > 400 nM

Compound: COc1cccc2sc(C=Cc3ccc(N4CCCCC4)cc3)[n+](C)c12 [2b, 4-Methoxy-3-methyl-2-(4-(piperidin-1-yl)styryl)benzo[d]thiazol-3-ium Iodide]
- Ki [1, 4]: 70.8 nM and 34.3 nM

Compound: COc1ccc2c(c1)sc(C=Cc1ccc(N3CCCCC3)cc1)[n+]2C [8b, 6-Methoxy-3-methyl-2-(4-(piperidin-1-yl)styryl)benzo[d]thiazol-3-ium Iodide]
- Ki [1, 4]: 19.7 nM and 9.6 nM
